Data on twelve molecules can be found in ChEMBL document CHEMBL4190290, “Synthesis and antiangiogenic activity study of new hop chalcone Xanthohumol analogues” (Eur J Med Chem, 2017).

The structures appear in SMILES notation. Activity calls are given as the source filed them. The rule behind the calls is not given here.

Data set [1] concerns HUVEC. As to the kind of experiment: Antiangiogenic activity in HUVEC assessed as inhibition of cell morphogenesis by measuring reduction in capillary like structure formation at 10 uM after 6 hrs by inverted microscopic method. In kind it is functional, cell-based. The following applies: Homo sapiens.
The subject of data set [2] is HUVEC. The data set can be described thus: Antiangiogenic activity in fibronectin pretreated HUVEC assessed as reduction in cell adhesion at 10 uM after 90 mins by DAPI staining based microscopic method. Particulars: Homo sapiens. The format is functional.
The subject of data set [3] is HUVEC. As to the kind of experiment: Anti-invasive activity in HUVEC at 10 uM after 24 hrs by DAPI staining based Boyden chamber method. In kind it is functional, cell-based. The following applies: Homo sapiens.
Data set [4] relates to HUVEC. The data set can be described thus: Antimigratory activity in HUVEC at 10 uM after 6 hrs by DAPI staining based Boyden chamber method. In kind it is functional, cell-based. Particulars: Homo sapiens.
Data set [5] deals with HUVEC. The data set can be described thus: Cytotoxicity against HUVEC assessed as induction of apoptosis at 10 uM after 24 hrs by Annexin V/7-AAD staining based flow cytometry. In kind it is cell-based. Particulars: human. On the technique in general: In flow cytometry, cells or beads pass a laser one at a time.
The subject of data set [6] is HUVEC. The data set can be described thus: Cytotoxicity against HUVEC assessed as reduction in cell viability at 20 uM up to 96 hrs by MTT assay. In kind it is cell-based. Particulars: human. (In general: Formazan colour is commonly taken as a measure of viable cells.)
Data set [7] deals with HUVEC. The data set can be described thus: Cytotoxicity against HUVEC assessed as reduction in cell viability at 10 uM after 96 hrs by MTT assay. The format is cell-based. Particulars: human.
The subject of data set [8] is HUVEC. The data set can be described thus: Cytotoxicity against HUVEC assessed as reduction in cell viability up to 20 uM up to 96 hrs by MTT assay. The following applies: human. In kind it is cell-based.

Turning to `COc1cc(O)c(CC=C(C)C)c(O)c1C(=O)/C=C/c1ccccc1F`, the “Antiangiogenic activity (active/not active)” value with HUVEC [1] is “Active”. Also, the outcome in the data set on HUVEC [2] was Active.
As for `COCOc1cc(OC)c(C(=O)/C=C/c2ccc([N+](=O)[O-])cc2)c(O)c1CC=C(C)C`, the outcome in the data set with HUVEC [3] was inactive. In addition, in the data set on HUVEC [1], the “Antiangiogenic activity (active/not active)” value is “Active”. For the same molecule, the outcome in the data set on HUVEC [2] and in the data set on HUVEC [4] was Active. The Activity result in the data set with HUVEC [5] and with HUVEC [6] was “Toxic” throughout.
Turning to `COCOc1cc(OC)c(C(=O)/C=C/c2ccc(F)cc2)c(O)c1CC=C(C)C`, in the data set on HUVEC [3], the outcome was inactive. Moreover, in the data set with HUVEC [4], the result was Active.
Take `COCOc1cc(OC)c(C(=O)/C=C/c2ccc(OC)c(F)c2)c(O)c1CC=C(C)C`: the outcome with HUVEC [3] was inactive. Further, in the data set on HUVEC [1], the “Antiangiogenic activity (active/not active)” value is “Active”. The result with HUVEC [2] and with HUVEC [4] was Active.
Consider `COc1cc(O)c(CC=C(C)C)c(O)c1C(=O)/C=C/c1ccc(O)cc1` [XANTHOHUMOL], for which the result in the data set on HUVEC [3], in the data set with HUVEC [2] and in the data set with HUVEC [4] was Active. In the data set with HUVEC [1], the “Antiangiogenic activity (active/not active)” value is “Active”. Besides, the Activity result in the data set with HUVEC [6] is listed as “Toxic”.
For the molecule `COc1ccc(/C=C/C(=O)c2c(OC)cc(O)c(CC=C(C)C)c2O)cc1F`, the outcome with HUVEC [3] was inactive. Besides, the “Antiangiogenic activity (active/not active)” value with HUVEC [1] was “Active”. The result with HUVEC [2] and with HUVEC [4] was Active.
In the case of `COCOc1cc(OC)c(C(=O)/C=C/c2ccc(OC)c(F)c2)c(OCOC)c1CC=C(C)C`, in the data set on HUVEC [3], the outcome was inactive. Moreover, the Activity result in the data set on HUVEC [7] is “Toxic”. For the same molecule, the “Antiangiogenic activity (active/not active)” value in the data set with HUVEC [1] was “Active”. The result in the data set with HUVEC [2] and in the data set on HUVEC [4] was Active.
Turning to `COCOc1cc(OC)c(C(=O)/C=C/c2ccc(OC)cc2F)c(O)c1CC=C(C)C`, the result with HUVEC [3] was inactive. Also, in the data set with HUVEC [1], the “Antiangiogenic activity (active/not active)” value was “Active”. Further, the outcome in the data set with HUVEC [2] was Active. For the same molecule, the Activity entry with HUVEC [8] is “Non-Toxic”.
`COCOc1cc(OC)c(C(=O)/C=C/c2ccccc2F)c(O)c1CC=C(C)C`: the “Antiangiogenic activity (active/not active)” value with HUVEC [1] is “Active”. The outcome in the data set with HUVEC [2] was Active.
As for `COCOc1cc(OC)c(C(=O)/C=C/c2ccc(OC)cc2F)c(OCOC)c1CC=C(C)C`, the result in the data set on HUVEC [3] was inactive. For the same molecule, the Activity entry in the data set with HUVEC [7] is given as “Toxic”. Besides, the “Antiangiogenic activity (active/not active)” value in the data set on HUVEC [1] was “Active”. In addition, the outcome in the data set on HUVEC [2] and in the data set with HUVEC [4] was Active.
Regarding `COc1cc(O)c(CC=C(C)C)c(O)c1C(=O)/C=C/c1ccc(F)cc1`, the result with HUVEC [3] was inactive. The “Antiangiogenic activity (active/not active)” value in the data set on HUVEC [1] is “Active”. For the same molecule, the outcome in the data set with HUVEC [2] and in the data set on HUVEC [4] was Active.
As to `COc1ccc(/C=C/C(=O)c2c(OC)cc(O)c(CC=C(C)C)c2O)c(F)c1`, in the data set with HUVEC [3], the outcome was inactive. Also, the “Antiangiogenic activity (active/not active)” value in the data set on HUVEC [1] is “Active”. In addition, the result with HUVEC [2] and in the data set on HUVEC [4] was Active. Besides, the Activity result in the data set on HUVEC [6] is given as “Toxic”.
